Molecules are shown by their SMILES. Active and inactive are the calls of the source.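 The calls were made as follows: active = fitted half-maximal concentration for a cytotoxic signal drop no higher than ten times the top valid dose tested; inconclusive = flat curve between -70 and -30 percent, or an unreliable fit; inactive = flat within 30 percent, signal rise, or potency beyond limit.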

The nature of this test: viability loss in HeLa cells – cell-based, 24 h, cherry-picked samples, cytotoxicity control, dose response (AID 504726).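 Also: 0% = DMSO neutral controls and -100% = mitoxantrone positive controls.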 The note with it: HeLa viability, CellTiter-Glo ATP luminescence, 24 h; at 35 µM (top of the series).
For `CN(C)/C=N/c1nc2nccc(-c3ccc(Cl)cc3)n2n1`, the activity change, negative = cytotoxicity was -3.67% (inactive).
Consider `O=C1/C(=C/c2ccco2)SC(=S)N1c1cccnc1`, for which the activity change, negative = cytotoxicity was -6.8% (inactive).
For the compound `COC(=O)Cn1c(=NC(=O)c2sc3ccccc3c2Cl)sc2cc(S(N)(=O)=O)ccc21`, the activity change, negative = cytotoxicity is -2.51% (inactive).
For `CC(=O)O[C@@H]1[C@@H](OC(C)=O)[C@H](n2ccc3cc([N+](=O)[O-])ccc32)OC[C@@H]1OC(C)=O`, the activity change, negative = cytotoxicity was -3.68% (inactive).
As to `COc1ccc(Br)cc1CNC(=O)CCCc1cn(C)c2ccccc12`, the activity change, negative = cytotoxicity was -12.1% (inactive).
Regarding `C=CCOC(=O)C1=C[C@H](c2csc3ccccc23)C[C@H](OCc2ccc(CO)cc2)O1`, the activity change, negative = cytotoxicity was -9.53% (inactive).
`CCc1noc(C)c1C(=O)NCCc1c[nH]c2ccccc12`: the activity change, negative = cytotoxicity was -12.2% (inactive).
In the case of `Cc1cc2nc3c(=O)[nH]c(=S)[nH]c3nc2cc1NC(=O)C(F)(F)F`, the activity change, negative = cytotoxicity is -3.95% (inactive).
For the compound `CC(C)C(=O)N1CCN(c2ccccc2NC(=S)NC(=O)c2ccco2)CC1`, the activity change, negative = cytotoxicity is -12.9% (inactive).
Next, `COC(=O)c1cc(N2CCN(C)CC2)nc2ccccc12`: -6.94% (inactive).
`Cc1ccsc1/C=N/NC(=O)Cc1ccc(Cl)cc1`: the activity change, negative = cytotoxicity is 1.7% (inactive).
For the compound `O=C(CCN1C(=O)/C(=C\c2ccco2)SC1=S)Nc1ccc(C(=O)O)c(O)c1`, the activity change, negative = cytotoxicity was 4.66% (inactive).
Regarding `Cc1ccc(NC(=O)CN2C(=O)N/C(=C/c3cc(C)n(-c4ccc(C(=O)O)cc4)c3C)C2=O)cc1`, the activity change, negative = cytotoxicity is -5.94% (inactive).
Next, `O=c1c2cc(O)c(O)cc2oc2cc(O)c(C3OC(CO)C(O)C(O)C3O)c(O)c12` (configuration not stated): 3.92% (inactive); `O=C(CN1CC[C@@]2(O)CCCC[C@H]2[C@@H]1c1ccc(F)cc1)NCc1ccco1`: -5.52% (inactive); `Brc1c(CSc2nncc3ccccc23)nc2ccccn12`: -1.12% (inactive).
Regarding `O=C(COc1ccccc1Cc1ccccc1)NCCCN1CCOCC1`, the activity change, negative = cytotoxicity is -9.39% (inactive).
For the compound `CC(C)Cn1c(N)c(C(=O)CSc2nnc(-c3ccco3)n2C)c(=O)n(C)c1=O`, the activity change, negative = cytotoxicity was -1.08% (inactive).
With `O=C(CN1CCN(C(=O)CNC(=O)c2ccc3c(c2)OCO3)CC1)Nc1ccc(F)cc1`, the activity change, negative = cytotoxicity was -9.87% (inactive).
Next, `O=C(O)C(Cc1ccccc1)N1C(=O)/C(=C/C=C/c2ccco2)SC1=S` (configuration not stated): -11.4% (inactive); `CN(c1ccccc1)S(=O)(=O)c1cccc(NS(=O)(=O)c2cccc(C(=O)O)c2)c1`: 3.74% (inactive).
In the case of `CSc1n[nH]c(=O)n1-c1cccc(Cl)c1`, the activity change, negative = cytotoxicity was 12.8% (inactive).
Consider `CN(c1ccc(OCC(=O)OCC(=O)c2c(N)n(C)c(=O)n(C)c2=O)cc1)S(=O)(=O)c1ccc2ccccc2c1`, for which the activity change, negative = cytotoxicity was 3.95% (inactive).
Turning to `Cc1c(Cl)cccc1NS(=O)(=O)c1ccc2c(c1)C1C=CCC1C(c1ccc(C(=O)O)cc1)N2` (configuration not stated), the activity change, negative = cytotoxicity is -10.8% (inactive).
Take `O=C(O)CN1C(=O)/C(=C\c2cc(Br)ccc2OCc2ccc([N+](=O)[O-])cc2)SC1=S`: the activity change, negative = cytotoxicity is -1.76% (inactive).
`Nc1c(/C=C2/C=CC(=O)C(O)=C2)c(=O)nc2sc(CC(=O)N3CCCC3)nn12`: the activity change, negative = cytotoxicity was -5.49% (inactive).
Consider `Nc1cccc(N2C(=O)c3cccc4c(N)ccc(c34)C2=O)c1`, for which the activity change, negative = cytotoxicity was 6.74% (inactive).
Next, `Cc1ccc(NC(=S)N/C(=N/S(=O)(=O)c2ccccc2)c2ccccc2)cc1`: 6.71% (inactive).
Next, `O=C(/C=N/NC(=O)c1ccc(Cl)cc1Cl)c1ccccc1`: 1.59% (inactive).
`COc1cccc2c1NC(C(=O)O)C1CC=CC21` (configuration not stated): the activity change, negative = cytotoxicity is -12.8% (inactive).
On to `CCCCn1nc(CC(=O)O)c2ccccc2c1=O`, for which the activity change, negative = cytotoxicity was -0.208% (inactive).
With `CC(C(=O)Nc1ccccc1)N1C(=O)c2ccccc2C1=O` (configuration not stated), the activity change, negative = cytotoxicity is -8.7% (inactive).
With `O=c1c2c(nc3cc(-c4ccc(F)cc4)[nH]n13)CCC2`, the activity change, negative = cytotoxicity is -13.7% (inactive).
As for `CCOC(=O)CCCn1c(C)nc(=O)c(-c2ccccc2)c1C`, the activity change, negative = cytotoxicity is 4.75% (inactive).
With `CCOCCCn1c(SCC(=O)NC(C)(C)C)nc2ccccc2c1=O`, the activity change, negative = cytotoxicity was -18.7% (inactive).
Regarding `Cc1ccc2cccc(OCC(=O)NCCC3=CCCCC3)c2n1`, the activity change, negative = cytotoxicity was -6.65% (inactive).
In the case of `O=C(Nc1ccccc1F)c1coc(=O)c(Br)c1`, the activity change, negative = cytotoxicity is -20.2% (inactive).
`Cc1ccc(NS(=O)(=O)c2ccc(C(=O)NCCCN3CCCC3=O)cc2)cc1`: the activity change, negative = cytotoxicity is -5.92% (inactive).
In the case of `C/C(=N/NC(=O)c1cc(O)c(O)c(O)c1)c1ccc([N+](=O)[O-])cc1`, the activity change, negative = cytotoxicity was -1.35% (inactive).
For `COc1c2c(nc3occc13)C(CCC(C)(C)O)(OC)C(O)CC2` (configuration not stated) the value was -4.6% (inactive); for `COCCNC(=O)Nc1ccc2nc(-c3ccco3)c(-c3ccco3)nc2c1`, -18.1% (inactive).
Next, `CC[C@H](C)[C@H](NC(N)=O)C(=O)Nc1ccc(NC(C)=O)cc1`: 6.72% (inactive).
Take `c1ccc(-c2cn3nc(-c4ccccc4)c(-c4ccccc4)nc3n2)cc1`: the activity change, negative = cytotoxicity is -12.6% (inactive).
Regarding `CCCOc1ccc(C=Nc2ccc(OC)c(S(=O)(=O)N3CCOCC3)c2)c(O)c1`, the activity change, negative = cytotoxicity is 19% (inactive).
In the case of `O=C(CC1CCCC1)N1CCN(S(=O)(=O)c2ccccc2)CC1`, the activity change, negative = cytotoxicity was -13.4% (inactive).
With `OCCN(CCO)c1nc(N2CCCCC2)c2nc(N(CCO)CCO)nc(N3CCCCC3)c2n1`, the activity change, negative = cytotoxicity is -1.48% (inactive).
With `CSc1nc(SC(C)C(=O)O)c2c3c(sc2n1)COC(C)(C)C3` (configuration not stated), the activity change, negative = cytotoxicity is -9.35% (inactive).
Regarding `Cc1c(C)n(Cc2ccccc2)c2ncnc(Cl)c12`, the activity change, negative = cytotoxicity is -17.6% (inactive).
Turning to `Cc1nc2ccccc2n2c(O)c(CC(=O)O)cc12`, the activity change, negative = cytotoxicity is -13.5% (inactive).
For `COc1cccc(OCCCn2cc(/C=C3/C(=N)N4C=C(C)SC4=NC3=O)c3ccccc32)c1` the value was -7.08% (inactive); for `CN1CCN(C(=S)c2ccc(N(C)C)cc2)CC1`, 6.8% (inactive).
For `Cc1cc(NC(=O)CSc2nnc(COc3cccc(C)c3C)n2C)no1`, the activity change, negative = cytotoxicity is 6.24% (inactive).
Regarding `COc1cccc(/C=N/NC(=O)C(=O)NCc2cccnc2)c1O`, the activity change, negative = cytotoxicity was -7.2% (inactive).
As to `Cc1ccc(S(=O)(=O)/N=C/c2ccc(N(C)C)cc2)cc1`, the activity change, negative = cytotoxicity is 2.12% (inactive).
Regarding `O=C(NCCCN1CCCC1=O)c1ccc2c(c1)ncn2C1CCCCC1`, the activity change, negative = cytotoxicity was -5.77% (inactive).
Consider `O=C(Cn1c2ccccc2c2nc3n(c(=O)c21)CCS3)Nc1ccccc1C(F)(F)F`, for which the activity change, negative = cytotoxicity was -2.68% (inactive).
With `CCC(Sc1ncccc1C(=O)O)C(=O)N1CCCC1` (configuration not stated), the activity change, negative = cytotoxicity is 3.53% (inactive).
Turning to `COCCN(C(=O)CN1CCCc2ccccc21)c1c(N)n(Cc2ccccc2)c(=O)[nH]c1=O`, the activity change, negative = cytotoxicity was 3.65% (inactive).
For `Nc1ccc2nc3c(=O)[nH]c(=S)[nH]c3nc2c1`, the activity change, negative = cytotoxicity was -3.49% (inactive).
As for `O=C(NC1CCCCC1)c1cc([N+](=O)[O-])ccc1N1CCOCC1`, the activity change, negative = cytotoxicity is -0.855% (inactive).
On to `O=c1[nH]nc(CSCc2ccccc2Cl)[nH]1`, for which the activity change, negative = cytotoxicity was -3.66% (inactive).
For `O=C(O)c1cccc(NC2=Nc3cccc4cccc2c34)c1` the value was -4.32% (inactive); for `Cc1nc(Cl)c2c(n1)NC1=C(O2)C(=O)CCC1`, -16.2% (inactive); for `Cn1c(=O)c(NCCO)c2c3c(cccc31)C(=O)c1ccccc1-2`, -6.61% (inactive).
As for `O=c1ccc2cc3c4c(c2o1)CCCN4CCC3`, the activity change, negative = cytotoxicity was -19.7% (inactive).
As for `CC(C)(C)OC(=O)C[C@@H]1C/C=C\C[C@H](CC(=O)N(CCO)Cc2ccccc2)C(=O)N[C@@H](c2ccccc2)COC1=O`, the activity change, negative = cytotoxicity was -9.09% (inactive).
For `CCOC(=O)C1CCCN(c2ccc([N+](=O)[O-])c3nonc23)C1` (configuration not stated), the activity change, negative = cytotoxicity was -8.2% (inactive).
Regarding `COC(=O)c1sc(C(F)(F)F)c(-c2ccccc2)c1S(=O)(=O)N1CCOCC1`, the activity change, negative = cytotoxicity is -14.2% (inactive).
Regarding `CC(Cc1ccccc1)NC(=O)NC(C)Cc1ccccc1` (configuration not stated), the activity change, negative = cytotoxicity is -7.16% (inactive).
In the case of `COc1cc(SC)ccc1C(=O)OCC(=O)N1CCN(C(C)=O)CC1`, the activity change, negative = cytotoxicity was 11.9% (inactive).
For `O=C(CCCN1C(=O)/C(=C\c2ccco2)SC1=S)Nc1ccc(O)cc1C(=O)O` the value was 4.85% (inactive); for `O=S(=O)(O)c1cc(Cl)cc(N=Nc2ccc(O)cc2O)c1O`, -12.1% (inactive); for `O=[N+]([O-])c1cc(-n2cnnn2)ccc1N1CCC(Cc2ccccc2)CC1`, -9.35% (inactive).
Regarding `Oc1ccc2nnc3c(Br)cnn3c2c1`, the activity change, negative = cytotoxicity is -12.1% (inactive).
For `CC(Sc1nc(-c2ccco2)nc2c1c(=O)n(C)c(=O)n2C)C(=O)O` (configuration not stated) the value was -11% (inactive); for `O=C(/C=C\c1ccccc1)Oc1cccc2cccnc12`, -9.78% (inactive).
In the case of `COC(=O)c1cccc(COC(=O)c2ccccc2NC(=O)c2ccco2)c1`, the activity change, negative = cytotoxicity is -11.1% (inactive).

The values above are taken from PubChem BioAssay AID504726 (Broad Institute, 2011).
